Measurements as given in article PMC9920077, “Antimicrobial Natural Products from Plant Pathogenic Fungi” (Molecules, 2023).
Converted amounts (≈) assume the structure as drawn. Where two headings read alike, the source gives them in different places.

Tests used:
E. coli ATCC 25922 = assay: MIC against E. coli ATCC 25922, CO-ADD; format: cell-based; conditions: Escherichia coli
Source text: (§1) Antimicrobial evaluation of the pure compounds against A. baumannii ATCC 19606, Candida albicans ATCC 90028, Cryptococcus neoformans ATCC 208821, E. coli ATCC 25922, K. pneumoniae ATCC 700603, P. aeruginosa ATCC 27853, and S. aureus ATCC 43300 (MRSA) was undertaken at the Community for Open Antimicrobial Drug Discovery at The University of Queensland (St. Lucia, Queensland, Australia) according to standard protocols as previously described.

A. baumannii ATCC 19606 = assay: MIC against A. baumannii ATCC 19606, CO-ADD; format: cell-based; conditions: Acinetobacter baumannii
Source text: as §1

P. aeruginosa ATCC 27853 = assay: MIC against P. aeruginosa ATCC 27853, CO-ADD; format: cell-based; conditions: Pseudomonas aeruginosa
Source text: as §1

[1] = test system: C. neoformans ATCC 208821; assay: MIC against C. neoformans ATCC 208821, CO-ADD; format: cell-based; conditions: Cryptococcus neoformans
Source text: as §1

[2] = test system: K. pneumoniae ATCC 700603; assay: MIC against K. pneumoniae ATCC 700603, CO-ADD; format: cell-based; conditions: Klebsiella pneumoniae
Source text: as §1

[3] = test system: S. aureus ATCC 43300 (MRSA); assay: MIC against S. aureus ATCC 43300 (MRSA), CO-ADD; format: cell-based, Staphylococcus aureus; conditions: for MIC: Staphylococcus aureus, read-out: MIC S. a
Source text: as §1

[4] = test system: HEK293 human embryonic kidney cells
Protocol: (§2) All compounds were also evaluated for their cytotoxicity against human embryonic kidney cells (HEK-293) and any haemolytic activity against human red blood cells.

C. albicans ATCC 90028 = assay: MIC against C. albicans ATCC 90028, CO-ADD; format: cell-based, Candida albicans; conditions: for MIC: Candida albicans
Source text: as §1

Mycotypha microspora = test system: Mycotypha microspora; design: method as in PMID 25312126; conditions: cited from earlier work
Elymus repens = test system: Elymus repens; design: method as in PMID 25312126; conditions: cited from earlier work
E. coli [5] = test system: E. coli; design: method as in doi:10.1002/ejoc.200800404; conditions: agar diffusion assay; cited from earlier work
Microbotryum violaceum = test system: Microbotryum violaceum; design: method as in doi:10.1002/ejoc.200800404; conditions: agar diffusion assay; cited from earlier work
Bacillus megaterium = test system: Bacillus megaterium; design: method as in doi:10.1002/ejoc.200800404; conditions: agar diffusion assay; cited from earlier work
S. aureus = test system: S. aureus; design: method as in PMID 19333565, doi:10.1590/S0100-40422007000700012; conditions: cited from earlier work
[6] = test system: Mycobacteria tuberculosis; design: method as in PMID 19333565, doi:10.1590/S0100-40422007000700012; conditions: cited from earlier work
B. subtilis = test system: B. subtilis; design: method as in PMID 19333565, doi:10.1590/S0100-40422007000700012; conditions: cited from earlier work
E. coli [7] = test system: E. coli; design: method as in PMID 4629229; conditions: disk diffusion assays; cited from earlier work
Sclerotinia sclerotiorum = test system: Sclerotinia sclerotiorum; design: method as in PMID 19333565, doi:10.1590/S0100-40422007000700012; conditions: cited from earlier work
S. cerevisiae = test system: S. cerevisiae; design: method as in PMID 19333565, doi:10.1590/S0100-40422007000700012; conditions: cited from earlier work
M. marinum BSG101 = assay: Antimycobacterial bioluminescence assay of pure compounds, M. marinum; conditions: Mycobacterium marinum, BSG101, 72 h
Protocol: Antimicrobial evaluation against M. abscessus and M. marinum was undertaken using in-house assays with the bioluminescent derivatives M. abscessus BSG301 [63] and M. marinum BSG101 [64]. […] Specifically, mycobacterial cultures were grown with shaking at 200 rpm in Middlebrook 7H9 broth (Fort Richard, Auckland, New Zealand) supplemented with 10% Middlebrook ADC enrichment media (Fort Richard, Auckland, New Zealand), 0.4% glycerol (Sigma-Aldrich, St. Louis, MO, USA), and 0.05% tyloxapol (Sigma-Aldrich, St. Louis, MO, USA). M. abscessus was grown at 37 °C and M. marinum at 28 °C. Cultures were grown until they reached the stationary phase (approximately 3–5 days for M. abscessus BSG301 and 7–10 days for M. marinum BSG101) and then diluted in MHB supplemented with 10% Middlebrook ADC enrichment media and 0.05% tyloxapol to give an optical density at 600 nm (OD600) of 0.001, which is the equivalent of ~10^6 bacteria per mL. Pure compounds were dissolved in DMSO and added to the wells of a black 96-well plate (Nunc, Thermo Scientific, Waltham, MA, USA) at doubling dilutions with a maximum concentration of 128 mg/mL. […] Bacterial luminescence was measured at regular intervals over 72 h using a Victor X-3 luminescence plate reader with an integration time of 1 s. […]

[8] = Cytotoxicity on HEK293 human embryonic kidney cells
Protocol: as §2

human red blood cells [9] = assay: Haemolytic activity on human red blood cells; conditions: concentration of compound at 10% haemolytic activity on human red blood cells; mean of two experiments
human red blood cells [10] = test system: human red blood cells
Aspergillus fumigatus = test system: Aspergillus fumigatus; design: method as in PMID 4629229, PMID 9797310, PMID 19801865; conditions: cited from earlier work
Microsporum gypseum = test system: Microsporum gypseum; design: method as in PMID 4629229, PMID 9797310, PMID 19801865; conditions: cited from earlier work
in vitro = conditions: human
Protocol: as §2

Aspergillus flavus = test system: Aspergillus flavus; design: method as in PMID 4629229, PMID 9797310, PMID 19801865; conditions: cited from earlier work
Bacillus subtilis = test system: Bacillus subtilis; design: method as in PMID 4629229; conditions: disk diffusion assays; cited from earlier work
[11] = ATCC25922, E. coli ATCC 25922, mean of two experiments, read-out: MIC E. c
[12] = ATCC19606, A. baumanii ATCC 19606, mean of two experiments, read-out: MIC A. b
[13] = ATCC27853, P. aeruginosa ATCC 27853, mean of two experiments, read-out: MIC P. a
[14] = ATCC208821, C. neoformans ATCC 208821, mean of two experiments, read-out: MIC C. n
[15] = ATCC700603, K. pneumoniae ATCC 700603, mean of two experiments, read-out: MIC K. p
[16] = S. aureus ATCC 43300 (MRSA), mean of two experiments
[17] = ATCC90028, C. albicans ATCC 90028, mean of two experiments, read-out: MIC C. a

Compound: CC(O)CCC(O)/C=C/C(=O)O (stereo not drawn) [compound 1, (E)-4,7-dihydroxyoct-2-enoic acid]
- MIC (E. coli ATCC 25922; [11]): > 184 µM
- MIC (A. baumannii ATCC 19606; [12]): > 184 µM
- MIC (P. aeruginosa ATCC 27853; [13]): > 184 µM
- MIC [1, 14]: > 184 µM
- MIC [2, 15]: > 184 µM
- MIC [3, 16]: > 184 µM
- cytotoxicity [4]: no cytotoxic or haemolytic activity
- MIC (C. albicans ATCC 90028; [17]): > 184 µM

Compound: C/C=C/c1cc2c(c(=O)o1)C(=O)[C@@H](O)[C@H](C)O2 [compound 2, radicinin]
- antifungal activity against Mycotypha microspora (Mycotypha microspora): moderate antifungal activity
- MIC (E. coli ATCC 25922; ATCC25922, read-out: MIC E. c): > 135 µM
- MIC (A. baumannii ATCC 19606; ATCC19606, read-out: MIC A. b): > 135 µM
- MIC (P. aeruginosa ATCC 27853; ATCC27853, read-out: MIC P. a): > 135 µM
- MIC ([1]; ATCC208821, read-out: MIC C. n): > 135 µM
- MIC ([2]; ATCC700603, read-out: MIC K. p): > 135 µM
- MIC [3]: > 135 µM
- MIC (C. albicans ATCC 90028; ATCC90028, read-out: MIC C. a): > 135 µM
- antifungal activity against Elymus repens (Elymus repens): moderate antifungal activity

Compound: C/C1=C\C[C@]2(C)C(=O)C(O)=C([C@H](C)CO)[C@H]2C/C=C(\C)[C@@H](O)CC/C(C)=C/CC1 [compound 3, terpestacin]
- MIC (E. coli ATCC 25922; [11]): > 79 µM
- MIC (A. baumannii ATCC 19606; [12]): > 79 µM
- MIC (P. aeruginosa ATCC 27853; [13]): > 79 µM
- MIC [1, 14]: > 79 µM
- MIC [2, 15]: > 79 µM
- MIC [3, 16]: > 79 µM
- MIC (C. albicans ATCC 90028; [17]): > 79 µM

Compound: C[C@@H]1CCC(=O)CCC(=O)O[C@H](C)CC[C@H](O)/C=C/C(=O)O1 [compound 4, tetrahydropyrenophorin]
- MIC (E. coli ATCC 25922; [11]): > 102 µM
- MIC (A. baumannii ATCC 19606; [12]): > 102 µM
- antibacterial activity against E. coli (E. coli [5]): moderate antibacterial activity
- MIC (P. aeruginosa ATCC 27853; [13]): > 102 µM
- MIC [1, 14]: > 102 µM
- antifungal activity against Microbotryum violaceum (Microbotryum violaceum): antifungal activity
- MIC [2, 15]: > 102 µM
- MIC [3, 16]: > 102 µM
- antibacterial activity against Bacillus megaterium (Bacillus megaterium): moderate antibacterial activity
- MIC (C. albicans ATCC 90028; [17]): > 102 µM

Compound: CC1CCCCCC(=O)c2c(O)cc(O)cc2CC(=O)O1 (stereo not drawn) [compound 5, curvularin]
- MIC (E. coli ATCC 25922; [11]): > 109 µM
- MIC (A. baumannii ATCC 19606; [12]): > 109 µM
- MIC (P. aeruginosa ATCC 27853; [13]): > 109 µM
- antimicrobial activity against S. aureus (S. aureus): inactive
- MIC [1, 14]: > 109 µM
- antimicrobial activity against Mycobacteria tuberculosis [6]: inactive
- MIC [2, 15]: > 109 µM
- MIC [3, 16]: > 109 µM
- antimicrobial activity against B. subtilis (B. subtilis): inactive
- activity against E. coli (E. coli [7]): none of the compounds were active
- antimicrobial activity against Sclerotinia sclerotiorum (Sclerotinia sclerotiorum): inactive
- antimicrobial activity against S. cerevisiae (S. cerevisiae): inactive
- MIC (C. albicans ATCC 90028; [17]): > 109 µM

Compound: C[C@H]1CCC/C=C/C(=O)c2c(O)cc(O)cc2CC(=O)O1 [compound 6, dehydro-curvularin]
- MIC (E. coli ATCC 25922; ATCC25922, read-out: MIC E. c): > 110 µM
- MIC (M. marinum BSG101): 32 µg/mL (≈ 110 µM)
- MIC (A. baumannii ATCC 19606; ATCC19606, read-out: MIC A. b): > 110 µM
- CC50 [8]: 1.27 µM
- MIC (P. aeruginosa ATCC 27853; ATCC27853, read-out: MIC P. a): > 110 µM
- HC10 (human red blood cells [9]): >110 µM
- antimicrobial activity against S. aureus (S. aureus): inactive
- MIC ([1]; ATCC208821, read-out: MIC C. n): > 110 µM
- MIC against M. tuberculosis [6]: 40 µM (≈ 11.6 µg/mL)
- antimicrobial activity against Mycobacteria tuberculosis [6]: active
- MIC ([2]; ATCC700603, read-out: MIC K. p): > 110 µM
- MIC [3]: > 110 µM
- antimicrobial activity against B. subtilis (B. subtilis): inactive
- antimicrobial activity against Sclerotinia sclerotiorum (Sclerotinia sclerotiorum): inactive
- antimicrobial activity against S. cerevisiae (S. cerevisiae): inactive
- MIC (C. albicans ATCC 90028; ATCC90028, read-out: MIC C. a): > 110 µM

Compound: COc1c(CC(C)O)c2c3c(CC(C)O)c(OC)c(=O)c4c(O)cc5c(c6c(cc(O)c(c1=O)c62)OCO5)c43 (stereo not drawn) [compound 7, cercosporin]
- MIC (E. coli ATCC 25922; [11]): > 60 µM
- MIC (A. baumannii ATCC 19606; [12]): > 60 µM
- haemolytic activity (human red blood cells [10]): not haemolytic
- CC50 [8]: 25.3 µM
- MIC (P. aeruginosa ATCC 27853; [13]): > 60 µM
- HC10 (human red blood cells [9]): >60 µM
- MIC [1, 14]: > 60 µM
- MIC [2, 15]: > 60 µM
- activity against MRSA ([3]; MRSA): potent activity
- MIC [3, 16]: ≤ 0.47 µM
- MIC (C. albicans ATCC 90028; [17]): > 60 µM

Compound: C[C@H]1CCC/C=C/[C@@H]2C[C@H](O)C[C@H]2[C@H](O)/C=C/C(=O)O1 [compound 8, brefeldin A]
- MIC (E. coli ATCC 25922; [11]): > 114 µM
- activity against Aspergillus fumigatus (Aspergillus fumigatus): activity
- MIC (A. baumannii ATCC 19606; [12]): > 114 µM
- CC50 [8]: 0.89 µM
- activity against Microsporum gypseum (Microsporum gypseum): activity
- MIC (P. aeruginosa ATCC 27853; [13]): > 114 µM
- HC10 (human red blood cells [9]): >114 µM
- MIC [1, 14]: > 114 µM
- MIC [2, 15]: > 114 µM
- MIC [3, 16]: > 114 µM
- activity against E. coli (E. coli [7]): none of the compounds were active
- antifungal activity against C. albicans (C. albicans ATCC 90028): moderate antifungal activity
- MIC (C. albicans ATCC 90028; [17]): 57 µM (≈ 16 µg/mL)

Compound: C[C@@H]1C[C@H]2O[C@@H]2/C=C\C=C\C(=O)Cc2c(Cl)c(O)cc(O)c2C(=O)O1 [compound 10, radicicol]
- CC50 (in vitro): > 88 µM
- activity against Aspergillus flavus (Aspergillus flavus): activity
- MIC (E. coli ATCC 25922; [11]): > 88 µM
- MIC (M. marinum BSG101): 64 µg/mL (≈ 175 µM)
- MIC (A. baumannii ATCC 19606; [12]): > 88 µM
- HC10 (human red blood cells [10]; human): >88 µM
- activity against B. subtilis (Bacillus subtilis): active
- MIC (P. aeruginosa ATCC 27853; [13]): > 88 µM
- MIC [1, 14]: > 88 µM
- MIC [2, 15]: > 88 µM
- MIC [3, 16]: > 88 µM
- activity against E. coli (E. coli [7]): none of the compounds were active
- antifungal activity against C. albicans (C. albicans ATCC 90028): moderate antifungal activity
- MIC (C. albicans ATCC 90028; [17]): 44 µM (≈ 16.1 µg/mL)

Compound: OC(Cn1cncn1)(Cn1cncn1)c1ccc(F)cc1F [fluconazole, reference compound]
- MIC [1, 14]: 26 µM (≈ 7.96 µg/mL)
- MIC (C. albicans ATCC 90028; [17]): 0.4 µM (≈ 0.123 µg/mL)

Compound: CC/C(=C(\c1ccccc1)c1ccc(OCCN(C)C)cc1)c1ccccc1 [tamoxifen, reference compound]
- IC50 ([8]; HEK-293 human embryonic kidney cells): 24 µM

Compound: CN[C@H](CC(C)C)C(=O)N[C@H]1C(=O)N[C@@H](CC(N)=O)C(=O)N[C@H]2C(=O)N[C@H]3C(=O)N[C@H](C(=O)N[C@H](C(=O)O)c4cc(O)cc(O)c4-c4cc3ccc4O)[C@H](O)c3ccc(c(Cl)c3)Oc3cc2cc(c3O[C@@H]2O[C@H](CO)[C@@H](O)[C@H](O)[C@H]2O[C@H]2C[C@](C)(N)[C@H](O)[C@H](C)O2)Oc2ccc(cc2Cl)[C@H]1O [vancomycin, reference compound]
- MIC [3]: 0.7 µM (≈ 1.01 µg/mL)
